The results in this text go back to ChEMBL document CHEMBL1138028, “Synthesis and HIV-1 integrase inhibitory activity of dimeric and tetrameric analogs of indolicidin” (Bioorg Med Chem Lett, 2004).

The target of experiment [1] is T1, Human immunodeficiency virus type 1 integrase (Human immunodeficiency virus 1, UniProt Q7ZJM1). In words: Concentration required for inhibition of HIV-1 integrase mediated 3'-end processing.
For experiment [2], the target named is T1, Human immunodeficiency virus type 1 integrase. In words: Concentration required for inhibition of HIV-1 integrase mediated strand transfer.

A word on the IC50: it is the concentration that inhibits the measured activity by half. Lower therefore signals greater potency.

T1 sequence (Q7ZJM1 whole entry): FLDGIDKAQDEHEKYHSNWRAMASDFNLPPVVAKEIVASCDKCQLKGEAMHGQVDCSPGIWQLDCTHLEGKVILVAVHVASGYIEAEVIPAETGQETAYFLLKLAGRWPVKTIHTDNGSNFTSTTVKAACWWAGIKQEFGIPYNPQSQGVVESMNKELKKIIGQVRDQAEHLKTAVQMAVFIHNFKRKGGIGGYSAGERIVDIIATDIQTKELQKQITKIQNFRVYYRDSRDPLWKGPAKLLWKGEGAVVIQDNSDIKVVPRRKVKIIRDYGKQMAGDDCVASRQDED

`CC[C@H](C)[C@H](N)C(=O)N[C@@H](CC(C)C)C(=O)N1CCC[C@H]1C(=O)N[C@@H](Cc1c[nH]c2ccccc12)C(=O)N[C@@H](CCCCN)C(=O)N[C@@H](Cc1c[nH]c2ccccc12)C(=O)N1CCC[C@H]1C(=O)N[C@@H](Cc1c[nH]c2ccccc12)C(=O)N[C@@H](Cc1c[nH]c2ccccc12)C(=O)N1CCC[C@H]1C(=O)N[C@@H](Cc1c[nH]c2ccccc12)C(=O)N[C@@H](CCCN=C(N)N)C(=O)N[C@@H](CCCN=C(N)N)C(N)=O` [Indolicidin]: the IC50 was determined as 60 µM in experiment [1] and 57 µM in experiment [2].

As for H-ILPWKWPWWPWPP-NH2, the IC50 in experiment [1] was 16 µM; in experiment [2] it was 13 µM.

Consider `CC[C@H](C)[C@H](N)C(=O)N[C@@H](CC(C)C)C(=O)N1CCC[C@H]1C(=O)N[C@@H](Cc1c[nH]c2ccccc12)C(=O)N[C@@H](CCCCN)C(=O)N[C@@H](Cc1c[nH]c2ccccc12)C(=O)N1CCC[C@H]1C(=O)N[C@@H](Cc1c[nH]c2ccccc12)C(=O)N[C@@H](Cc1c[nH]c2ccccc12)C(=O)N1CCC[C@H]1C(=O)N[C@@H](Cc1c[nH]c2ccccc12)C(=O)N1CCC[C@H]1C(=O)N1CCC[C@H]1C(=O)NCCCCC(NC(=O)[C@@H]1CCCN1C(=O)[C@@H]1CCCN1C(=O)[C@H](Cc1c[nH]c2ccccc12)NC(=O)[C@@H]1CCCN1C(=O)[C@H](Cc1c[nH]c2ccccc12)NC(=O)[C@H](Cc1c[nH]c2ccccc12)NC(=O)[C@@H]1CCCN1C(=O)[C@H](Cc1c[nH]c2ccccc12)NC(=O)[C@H](CCCCN)NC(=O)[C@H](Cc1c[nH]c2ccccc12)NC(=O)[C@@H]1CCCN1C(=O)[C@H](CC(C)C)NC(=O)[C@@H](N)[C@@H](C)CC)C(N)=O` (stereo not given in full), for which the IC50 in experiment [1] was determined as 2.8 µM; in experiment [2], 4.9 µM.

`CC[C@H](C)[C@@H](N)C(=O)N[C@H](CC(C)C)C(=O)N1CCC[C@@H]1C(=O)N[C@H](Cc1c[nH]c2ccccc12)C(=O)N[C@H](CCCCN)C(=O)N[C@H](Cc1c[nH]c2ccccc12)C(=O)N1CCC[C@@H]1C(=O)N[C@H](Cc1c[nH]c2ccccc12)C(=O)N[C@H](Cc1c[nH]c2ccccc12)C(=O)N1CCC[C@@H]1C(=O)N[C@H](Cc1c[nH]c2ccccc12)C(=O)N1CCC[C@@H]1C(=O)N1CCC[C@@H]1C(=O)NCCCCC(NC(=O)[C@H]1CCCN1C(=O)[C@H]1CCCN1C(=O)[C@@H](Cc1c[nH]c2ccccc12)NC(=O)[C@H]1CCCN1C(=O)[C@@H](Cc1c[nH]c2ccccc12)NC(=O)[C@@H](Cc1c[nH]c2ccccc12)NC(=O)[C@H]1CCCN1C(=O)[C@@H](Cc1c[nH]c2ccccc12)NC(=O)[C@@H](CCCCN)NC(=O)[C@@H](Cc1c[nH]c2ccccc12)NC(=O)[C@H]1CCCN1C(=O)[C@@H](CC(C)C)NC(=O)[C@H](N)[C@@H](C)CC)C(N)=O` (stereo not given in full): the 50% inhibitory concentration (IC50) in experiment [1] and in experiment [2] was 2.3 µM throughout.

As for `CC[C@H](C)[C@H](N)C(=O)N[C@@H](CC(C)C)C(=O)N1CCC[C@H]1C(=O)N[C@@H](Cc1c[nH]c2ccccc12)C(=O)N[C@@H](CCCCN)C(=O)N[C@@H](Cc1c[nH]c2ccccc12)C(=O)N1CCC[C@H]1C(=O)N[C@@H](Cc1c[nH]c2ccccc12)C(=O)N[C@@H](Cc1c[nH]c2ccccc12)C(=O)N1CCC[C@H]1C(=O)N[C@@H](Cc1c[nH]c2ccccc12)C(=O)N1CCC[C@H]1C(=O)N1CCC[C@H]1C(=O)NCCCCC(NC(=O)[C@@H]1CCCN1C(=O)[C@@H]1CCCN1C(=O)[C@H](Cc1c[nH]c2ccccc12)NC(=O)[C@@H]1CCCN1C(=O)[C@H](Cc1c[nH]c2ccccc12)NC(=O)[C@H](Cc1c[nH]c2ccccc12)NC(=O)[C@@H]1CCCN1C(=O)[C@H](Cc1c[nH]c2ccccc12)NC(=O)[C@H](CCCCN)NC(=O)[C@H](Cc1c[nH]c2ccccc12)NC(=O)[C@@H]1CCCN1C(=O)[C@H](CC(C)C)NC(=O)[C@@H](N)[C@@H](C)CC)C(=O)NCCCCC(NC(=O)C(CCCCNC(=O)[C@@H]1CCCN1C(=O)[C@@H]1CCCN1C(=O)[C@H](Cc1c[nH]c2ccccc12)NC(=O)[C@@H]1CCCN1C(=O)[C@H](Cc1c[nH]c2ccccc12)NC(=O)[C@H](Cc1c[nH]c2ccccc12)NC(=O)[C@@H]1CCCN1C(=O)[C@H](Cc1c[nH]c2ccccc12)NC(=O)[C@H](CCCCN)NC(=O)[C@H](Cc1c[nH]c2ccccc12)NC(=O)[C@@H]1CCCN1C(=O)[C@H](CC(C)C)NC(=O)[C@H](N)[C@@H](C)CC)NC(=O)[C@@H]1CCCN1C(=O)[C@@H]1CCCN1C(=O)[C@H](Cc1c[nH]c2ccccc12)NC(=O)[C@@H]1CCCN1C(=O)[C@H](Cc1c[nH]c2ccccc12)NC(=O)[C@H](Cc1c[nH]c2ccccc12)NC(=O)[C@@H]1CCCN1C(=O)[C@H](Cc1c[nH]c2ccccc12)NC(=O)[C@H](CCCCN)NC(=O)[C@H](Cc1c[nH]c2ccccc12)NC(=O)[C@@H]1CCCN1C(=O)[C@H](CC(C)C)NC(=O)[C@@H](N)[C@@H](C)CC)C(N)=O` (stereo not given in full), the IC50 in experiment [1] and in experiment [2] was 0.6 µM throughout.

For H-ILPWGWPWWPWPP-NH2, the IC50 in experiment [1] and in experiment [2] was over 333 µM throughout.

For the compound H-LPWKWPWWPWPP-NH2, the half-inhibitory concentration (IC50) in experiment [1] turned out to be 185 µM; in experiment [2], 215 µM.

Take H-ILAWKWAWWAWPP-NH2: the half-maximal inhibitory concentration (IC50) in experiment [1] was 54 µM; in experiment [2], 41 µM.

Regarding H-ILPWKWPWWPWP-NH2, the 50% inhibitory concentration (IC50) in experiment [1] stood at 180 µM; in experiment [2], 80 µM.

`CC[C@H](C)[C@H](N)C(=O)N[C@@H](CC(C)C)C(=O)N1CCC[C@H]1C(=O)N[C@@H](Cc1c[nH]c2ccccc12)C(=O)NCC(=O)N[C@@H](Cc1c[nH]c2ccccc12)C(=O)N1CCC[C@H]1C(=O)N[C@@H](Cc1c[nH]c2ccccc12)C(=O)N[C@@H](Cc1c[nH]c2ccccc12)C(=O)N1CCC[C@H]1C(=O)N[C@@H](Cc1c[nH]c2ccccc12)C(=O)N[C@@H](CCCN=C(N)N)C(=O)N[C@@H](CCCN=C(N)N)C(N)=O`: the IC50 in experiment [1] was 49 µM; in experiment [2] it was 19 µM.
